Test: recombinant barcode read abundance after kanamycin selection (control-corrected) (log10(CPM+1)); higher = more efficient recombination; sequences stand for … in AGTGCAGAGAAAATCGGCCAGTTTTCTCTGCCTGCAGTCCGCATGCCGT…ATTTATGCAGCGGACTGCCTTTCTCCCAAAGTGATAAACCGGACAGTATCATGGACCGGTTTTCCCGGTAATCCGTATTTGCAAGGTTGGTTTCACT; site = the 11-nt target
How it was run: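 Duplicate cultures were plated either on chloramphenicol/ampicillin LB agar, serving as control, or on chloramphenicol/ampicillin/kanamycin with 0.1 mM IPTG. These came from a pooled E. coli library co-electroporated with a donor plasmid, each member pairing a target with an IS621 bridge RNA target-binding loop. Recombination efficiency equals averaged, control-corrected counts per million of recombinant-junction barcodes. It is listed as log10(CPM+1).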

## ATGTCCCCTTGGGTTCTAACCTGTTGCTCAA [ATGTCCCCTGA_LTGcore_CT_RTGcore_TT] (site ATGTCCCCTGA) (LTG core: CT, RTG core: TT)
  recombinant barcode read abundance (log10): 0.0803

## ATGTCCCCTTGGGTTCTAACCTGTTGCTCAG [ATGTCCCCTGA_LTGcore_CT_RTGcore_CT] (site ATGTCCCCTGA) (LTG core: CT, RTG core: CT)
  recombinant barcode read abundance (log10): 1.46

## ATGTCCCCTTGGGTTCTAACCTGTTGCTCCC [ATGTCCCCTGA_LTGcore_CT_RTGcore_GG] (site ATGTCCCCTGA) (LTG core: CT, RTG core: GG)
  recombinant barcode read abundance (log10): 0.175

## ATGTCCCCTTGGGTTCTAACCTGTTGCTCGA [ATGTCCCCTGA_LTGcore_CT_RTGcore_TC] (site ATGTCCCCTGA) (LTG core: CT, RTG core: TC)
  recombinant barcode read abundance (log10): 0.0646

## ATGTCCCCTTGGGTTCTAACCTGTTGCTCTT [ATGTCCCCTGA_LTGcore_CT_RTGcore_AA] (site ATGTCCCCTGA) (LTG core: CT, RTG core: AA)
  recombinant barcode read abundance (log10): 0.0454

## ATGTCCCGATGGGTTCTAACCTGTTGCTCTC [ATGTCCCCTGA_LTGcore_GA_RTGcore_GA] (site ATGTCCCCTGA) (LTG core: GA, RTG core: GA)
  recombinant barcode read abundance (log10): 0.0444

## CATATTACGTGGGTTCTAACCTGTTGCCTAG [CATATTACTAG_LTGcore_CG_RTGcore_CT] (site CATATTACTAG) (LTG core: CG, RTG core: CT)
  recombinant barcode read abundance (log10): 0.0547

## CATATTACTTGGGTTCTAACCTGTTGCCTAA [CATATTACTAG_LTGcore_CT_RTGcore_TT] (site CATATTACTAG) (LTG core: CT, RTG core: TT)
  recombinant barcode read abundance (log10): 0.105

## CATATTACTTGGGTTCTAACCTGTTGCCTCA [CATATTACTAG_LTGcore_CT_RTGcore_TG] (site CATATTACTAG) (LTG core: CT, RTG core: TG)
  recombinant barcode read abundance (log10): 0.0517

## CATATTACTTGGGTTCTAACCTGTTGCCTCT [CATATTACTAG_LTGcore_CT_RTGcore_AG] (site CATATTACTAG) (LTG core: CT, RTG core: AG)
  recombinant barcode read abundance (log10): 0.0539

## CATATTACTTGGGTTCTAACCTGTTGCCTTC [CATATTACTAG_LTGcore_CT_RTGcore_GA] (site CATATTACTAG) (LTG core: CT, RTG core: GA)
  recombinant barcode read abundance (log10): 0.084

## CATATTACTTGGGTTCTAACCTGTTGCCTTT [CATATTACTAG_LTGcore_CT_RTGcore_AA] (site CATATTACTAG) (LTG core: CT, RTG core: AA)
  recombinant barcode read abundance (log10): 0.0756

## CATATTAGGTGGGTTCTAACCTGTTGCCTCC [CATATTACTAG_LTGcore_GG_RTGcore_GG] (site CATATTACTAG) (LTG core: GG, RTG core: GG)
  recombinant barcode read abundance (log10): 0.117

## CATATTATATGGGTTCTAACCTGTTGCCTAG [CATATTACTAG_LTGcore_TA_RTGcore_CT] (site CATATTACTAG) (LTG core: TA, RTG core: CT)
  recombinant barcode read abundance (log10): 0.0615

## CATATTATCTGGGTTCTAACCTGTTGCCTAG [CATATTACTAG_LTGcore_TC_RTGcore_CT] (site CATATTACTAG) (LTG core: TC, RTG core: CT)
  recombinant barcode read abundance (log10): 0.127

## CATATTATTTGGGTTCTAACCTGTTGCCTAA [CATATTACTAG_LTGcore_TT_RTGcore_TT] (site CATATTACTAG) (LTG core: TT, RTG core: TT)
  recombinant barcode read abundance (log10): 0.0172

## CATATTATTTGGGTTCTAACCTGTTGCCTAG [CATATTACTAG_LTGcore_TT_RTGcore_CT] (site CATATTACTAG) (LTG core: TT, RTG core: CT)
  recombinant barcode read abundance (log10): 0

## CGAGCCCAGTGGGTTCTAACCTGTTGCTGCT [CGAGCCCCTCA_LTGcore_AG_RTGcore_AG] (site CGAGCCCCTCA) (LTG core: AG, RTG core: AG)
  recombinant barcode read abundance (log10): 0.189

## CGAGCCCATTGGGTTCTAACCTGTTGCTGAG [CGAGCCCCTCA_LTGcore_AT_RTGcore_CT] (site CGAGCCCCTCA) (LTG core: AT, RTG core: CT)
  recombinant barcode read abundance (log10): 0.104

## CGAGCCCCCTGGGTTCTAACCTGTTGCTGGG [CGAGCCCCTCA_LTGcore_CC_RTGcore_CC] (site CGAGCCCCTCA) (LTG core: CC, RTG core: CC)
  recombinant barcode read abundance (log10): 0.0674

## CGAGCCCCTTGGGTTCTAACCTGTTGCTGTA [CGAGCCCCTCA_LTGcore_CT_RTGcore_TA] (site CGAGCCCCTCA) (LTG core: CT, RTG core: TA)
  recombinant barcode read abundance (log10): 0.68

## CGAGCCCGATGGGTTCTAACCTGTTGCTGAG [CGAGCCCCTCA_LTGcore_GA_RTGcore_CT] (site CGAGCCCCTCA) (LTG core: GA, RTG core: CT)
  recombinant barcode read abundance (log10): 0.157

## CGAGCCCGGTGGGTTCTAACCTGTTGCTGCC [CGAGCCCCTCA_LTGcore_GG_RTGcore_GG] (site CGAGCCCCTCA) (LTG core: GG, RTG core: GG)
  recombinant barcode read abundance (log10): 0.18

## CGAGCCCTATGGGTTCTAACCTGTTGCTGAG [CGAGCCCCTCA_LTGcore_TA_RTGcore_CT] (site CGAGCCCCTCA) (LTG core: TA, RTG core: CT)
  recombinant barcode read abundance (log10): 0.312

## CGAGCCCTCTGGGTTCTAACCTGTTGCTGGA [CGAGCCCCTCA_LTGcore_TC_RTGcore_TC] (site CGAGCCCCTCA) (LTG core: TC, RTG core: TC)
  recombinant barcode read abundance (log10): 0.139

## CGCGCCCAGTGGGTTCTAACCTGTTGCGGAG [CGCGCCCCTCC_LTGcore_AG_RTGcore_CT] (site CGCGCCCCTCC) (LTG core: AG, RTG core: CT)
  recombinant barcode read abundance (log10): 0.0753

## CGCGCCCATTGGGTTCTAACCTGTTGCGGAT [CGCGCCCCTCC_LTGcore_AT_RTGcore_AT] (site CGCGCCCCTCC) (LTG core: AT, RTG core: AT)
  recombinant barcode read abundance (log10): 0.0457

## CGCGCCCCTTGGGTTCTAACCTGTTGCGGTC [CGCGCCCCTCC_LTGcore_CT_RTGcore_GA] (site CGCGCCCCTCC) (LTG core: CT, RTG core: GA)
  recombinant barcode read abundance (log10): 0.041

## CGCGCCCGCTGGGTTCTAACCTGTTGCGGAG [CGCGCCCCTCC_LTGcore_GC_RTGcore_CT] (site CGCGCCCCTCC) (LTG core: GC, RTG core: CT)
  recombinant barcode read abundance (log10): 0.198

## CGCGCCCGTTGGGTTCTAACCTGTTGCGGAC [CGCGCCCCTCC_LTGcore_GT_RTGcore_GT] (site CGCGCCCCTCC) (LTG core: GT, RTG core: GT)
  recombinant barcode read abundance (log10): 0.421

## CGCGCCCTCTGGGTTCTAACCTGTTGCGGAG [CGCGCCCCTCC_LTGcore_TC_RTGcore_CT] (site CGCGCCCCTCC) (LTG core: TC, RTG core: CT)
  recombinant barcode read abundance (log10): 0.264

## CGCGCCCTCTGGGTTCTAACCTGTTGCGGGA [CGCGCCCCTCC_LTGcore_TC_RTGcore_TC] (site CGCGCCCCTCC) (LTG core: TC, RTG core: TC)
  recombinant barcode read abundance (log10): 0.307

## CGCGCCCTGTGGGTTCTAACCTGTTGCGGCA [CGCGCCCCTCC_LTGcore_TG_RTGcore_TG] (site CGCGCCCCTCC) (LTG core: TG, RTG core: TG)
  recombinant barcode read abundance (log10): 0.0883

## CGCGCCCTTTGGGTTCTAACCTGTTGCGGAA [CGCGCCCCTCC_LTGcore_TT_RTGcore_TT] (site CGCGCCCCTCC) (LTG core: TT, RTG core: TT)
  recombinant barcode read abundance (log10): 0.156
